{"source": "patent US20050004029A1", "about": "“Methods and compositions for treating vascular leak using hepatocyte growth factor” (priority 2001, published 2005)", "key": {"p42/44 ERK": {"system": "p42/44 ERK", "assay": "p42/44 ERK activation by phospho-specific immunoblotting", "format": "cell-based, human", "details": "HGF 20 ng/ml", "protocol": "Endothelial cell monolayers grown to confluence in 12-well plates and challenged with HGF were lysed with 100 μl of 2×SDS sample buffer, and cell lysates were transferred into microcentrifuge tubes and boiled for 5 min. After a brief spin, proteins from 10 μl cell lysates were separated on 12% SDS-PAGE and transferred to nitrocellulose (Schleicher & Schuell, Keene, N.H.) (30V, 18 h). After blocking with PBST (PBS with 0.1% Tween 20) containing 5% non-fat milk for 1 hr, nitrocellulose blots were reacted with primary antibodies diluted in PBST containing 5% BSA for 1 hr, washed with PBST (3×10 min), incubated with peroxidase-conjugated secondary antibodies (goat anti-rabbit IgG, 1:10,000 dilution, Sigma; or goat anti-mouse IgG, 1:10,000 dilution, Bio-Rad Labs, Richmond, Calif.) diluted in PBST with 5% non-fat milk for 1 hr and again washed with PBST (3×10 min). Finally, immunoreactive proteins were detected using ECL. The relative intensities of the protein bands were quantified by scanning densitometry.\nThe MAP family of kinases (ERK1/2 and p38) are actively involved in agonist-induced endothelial cell actin reorganization and barrier regulation (Verin, A. D. et al. (2000) Am. J. Physiol: Lung Cell Molec. Phys. 279:L360-L370, 2000; Garcia, J. G. N. et al. (2001) J. Clin. Invest. 108:689-711) and have been noted to participate in HGF-mediated cell activation (Liang, C. C. and Chen, H. C. (2001) J. Biol. Chem. 276:21146-21152). These reports were confirmed in human endothelial cell monolayers incubated with HGF (20 ng/ml, for 1, 2, 5, 10, 15, 20, 30, 60, or 120 min) where activation of p42/44 ERK and p38 MAPK by HGF was detected by immunoblotting with antibodies that only recognize the phosphorylated (activated) forms of ERK or p38 MAPK. The activation of ERKs was evident at 5 min, maximal after 10-15 min with a gradual decline thereafter, but remaining sustained above basal levels for more than 2 hrs. […] The onset of HGF-mediated activation of p38 MAPK was similar to ERK, with plateau at 10-15 min. However, the duration of this response was much more truncated than ERK activation, beginning to decline by 20 min and returning to basal value by 1 hr."}, "human endothelial cells": {"system": "human endothelial cells", "assay": "β-catenin immunofluorescent microscopy", "format": "cell-based", "details": "HGF-stimulated cells", "protocol": "Endothelial cell monolayers grown on gelatinized cover slips were rinsed with M199 and incubated with agonists in the same medium in a 37° C. incubator (5% CO2). Monolayers were then rinsed with PBS (3×2 min), fixed in 4% paraformaldehyde for 10 min, again rinsed with PBS (3×2 min), and permeabilized with 0.25% Triton X-100 for 5 min. Cells were then washed briefly with PBS (3×2 min), blocked with PBS containing 2% BSA for 30 min and incubated with 1 Unit/mL of Texas Red-X phalloidin (Molecular Probes, Eugene, Oreg.), β-catenin antibody (Transduction Laboratories, Lexington, Ky.), glycogen synthase kinase-3 β (GSK-3β) (Santa Cruz Biotechnology, Inc., Santa Cruz, Calif.), or mono-phosphorylated MLC antisera (see Garcia, J. G. N. et al. (2001) J. Clin. Invest. 108:689-711) for 1 hr. After washing with PBS (3×2 min), cover slips were mounted on slides using SlowFade mounting medium (Molecular Probes). Cells were analyzed using a 60× oil objective on a Nikon Eclipse TE 300 microscope. Images were captured by Sony Digital Photo camera DKC 5000. The same exposure time was applied to all samples within one experiment. […]"}, "[1]": {"system": "Human pulmonary artery endothelial cells", "assay": "Transendothelial electrical resistance (TER) of human pulmonary artery endothelial cell monolayers", "format": "cell-based", "details": "HGF 100 ng/ml; baseline TER ~1600 Ω"}}, "data": [{"substance": "HGF: heparin-binding glycoprotein, multifunctional cytokine, ligand of c-Met; purchased from R&D Systems", "values": [{"measurement": "duration of ERK activation above basal levels", "setting": "p42/44 ERK", "result": "more than 2 hrs"}, {"measurement": "time at which ERK activation is evident", "setting": "p42/44 ERK", "result": 5, "unit": "min"}, {"measurement": "time of maximal ERK activation", "setting": "p42/44 ERK", "result": "10 to 15", "unit": "min"}, {"measurement": "β-catenin immunoreactivity", "setting": "human endothelial cells", "result": "increased β-catenin immunoreactivity along cell borders"}, {"measurement": "peak TER", "setting": "[1]", "result": "~2400 Ω"}]}]}
